Results on six compounds are retold here after ChEMBL document CHEMBL1201862, “PubChem BioAssay data set” (2004).

Holding throughout (experiment): NCI tumour cell line growth inhibition, 48 h
For experiment [1], the system named is RPMI-8226.
The subject of experiment [2] is PC-3.
The subject of experiment [3] is UACC-62.
Experiment [4] deals with SN12C.
In experiment [5] the test system is MDA-N.
Experiment [6] concerns SK-MEL-5.
The test system of experiment [7] is A498.
In experiment [8] the test system is OVCAR-3.
In experiment [9] the test system is MDA-MB-231.
Experiment [10] deals with NCI-H460.
Experiment [11] deals with HL-60.
Experiment [12] concerns SF-539.
For experiment [13], the system named is UO-31.
In experiment [14] the test system is OVCAR-4.
For experiment [15], the system named is NCI-H226.
The subject of experiment [16] is SK-MEL-2.
Experiment [17] has as its system HT-29.
Experiment [18] concerns NCI-H522.
The subject of experiment [19] is SR.
The test system of experiment [20] is OVCAR-8.

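Growth conditions: 96-well plates. Treatment: test compound, 48 hours, 5 concentrations. Analysis: linear interpolation between bracketing concentrations; unreached endpoints set to highest concentration. GI50 marks 50% less growth.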 The source made the active and inactive calls. No stated cut-off is given here; in the data, active = GI50 up to about 1.1 µM and inactive = higher.

For `O=C1/C(=C/c2cccnc2)C(n2cccc2)c2c(Br)sc(Br)c21` (stereo not given), the GI50 in experiment [1] is 1.95 µM (inactive); in [2], 2.14 µM (inactive); in [3], 2 µM (inactive); in experiment [4] it was 3.94 µM (inactive); in [5], 2.05 µM (inactive); in experiment [6], 7.18 µM (inactive). Besides, the GI50 in experiment [7] is 16.6 µM (inactive); in experiment [8], 1.92 µM (inactive); in experiment [9], 1.8 µM (inactive); in experiment [10], 4.16 µM (inactive); in [11], 1.83 µM (inactive); in [12], 4.26 µM (inactive). In addition, the GI50 in [13] was 1.78 µM (inactive); in [14] it was 2.07 µM (inactive); in [15], 41.3 µM (inactive); in experiment [16] it was 2.26 µM (inactive); in [17], 2.79 µM (inactive); in [18] it was 6.07 µM (inactive). Also, the GI50 in experiment [19] is 1.81 µM (inactive); in [20], 2.1 µM (inactive).
In the case of `CCOCC(=O)N[C@H]1CCc2cc(OC)c(OC)c(OC)c2-c2ccc(SC)c(=O)cc21`, the GI50 in experiment [1] is < 0.01 µM (active); in experiment [2], < 0.0327 µM (active); in experiment [3], < 0.01 µM (active); in [4] it was < 0.01 µM (active); in experiment [5], < 0.01 µM (active); in [6], < 0.01 µM (active). Moreover, the GI50 in [7] is < 0.01 µM (active); in experiment [8], < 0.01 µM (active); in [9], < 0.01 µM (active); in experiment [10], < 0.01 µM (active); in experiment [11], 0.0217 µM (active); in experiment [12], < 0.01 µM (active). In addition, the GI50 is 0.0188 µM (active) in experiment [13]; 3.97 µM (inactive) in experiment [14]; 0.0465 µM (active) in experiment [15]; < 0.01 µM (active) in [16]; < 0.01 µM (active) in experiment [17]; < 0.01 µM (active) in experiment [18]. Further, the GI50 in experiment [19] and in [20] was < 0.01 µM (active) each time.
With `CN(C)CCOc1ccc2c(c1)C/C(=C/c1ncc([N+](=O)[O-])n1C)C2=O`, the GI50 in experiment [1] is 1.37 µM (inactive); in experiment [2], 3.4 µM (inactive); in [3] it was 1.95 µM (inactive); in [4], 2.58 µM (inactive); in [5], 3.94 µM (inactive); in [6], 1.64 µM (inactive). In addition, the GI50 in experiment [7] is 2.23 µM (inactive); in [8], 2.11 µM (inactive); in experiment [9], 1.91 µM (inactive); in [10] it was 0.508 µM (active); in [11], 3.25 µM (inactive); in [12] it was 3.97 µM (inactive). Further, the GI50 in experiment [13] is 1.68 µM (inactive); in experiment [14] it was 1.53 µM (inactive); in experiment [15] it was 1.46 µM (inactive); in experiment [16], 1.67 µM (inactive); in [17], 1.35 µM (inactive); in [18] it was 0.918 µM (active). In addition, the results for the GI50 in [19] and in [20] were 0.242 µM (active) and 1.43 µM (inactive), respectively.
Regarding `CC1C[C@]2(C)C(=O)N(c3ccccc3)C(=N)[C@@H]2N(C)c2ccccc21` (stereo not given in full), the GI50 was > 100 µM (inactive) in experiment [1]; > 100 µM (inactive) in experiment [2]; > 100 µM (inactive) in [3]; 10.8 µM (inactive) in experiment [4]; > 100 µM (inactive) in experiment [5]; > 100 µM (inactive) in experiment [6]. For the same compound, the GI50 in experiment [7] is > 100 µM (inactive); in [8], 70.1 µM (inactive); in experiment [9] it was > 100 µM (inactive); in experiment [10] it was > 100 µM (inactive); in [11], > 100 µM (inactive); in [12], > 100 µM (inactive). Besides, the GI50 in experiment [13], in [14], in [15], in [16], in experiment [17] and in [18] was > 100 µM (inactive) throughout. Besides, the GI50 in experiment [19] and in [20] was > 100 µM (inactive) each time.
For the compound `Oc1c(Cl)c(Cl)c(Cl)c(Cl)c1Cl` [PENTACHLOROPHENOL], the GI50 was 22.1 µM (inactive) in experiment [1]; 18.9 µM (inactive) in [2]; 16.4 µM (inactive) in [3]; 19.1 µM (inactive) in experiment [4]; 23.2 µM (inactive) in experiment [5]; 18.3 µM (inactive) in experiment [6]. The GI50 in [7] is 19 µM (inactive); in experiment [8] it was 18.7 µM (inactive); in experiment [9] it was 13.3 µM (inactive); in experiment [10], > 100 µM (inactive); in [11], 17.5 µM (inactive); in experiment [12], 21.5 µM (inactive). The GI50 in experiment [13] was 17 µM (inactive); in [14], 21.8 µM (inactive); in experiment [15], 28.4 µM (inactive); in experiment [16], 16 µM (inactive); in experiment [17] it was 21.2 µM (inactive); in experiment [18], 24 µM (inactive). Also, the GI50 in [19] is 26.1 µM (inactive); in [20] it was 20.8 µM (inactive).
In the case of `C#CCN(Cc1ccc2nc(OC)c(OC)nc2c1)c1cc(OC)c(OC)c(OC)c1`, the GI50 in [1] is 5.6 µM (inactive); in experiment [2] it was 26.1 µM (inactive); in experiment [3] it was 18.9 µM (inactive); in experiment [4], 18.2 µM (inactive); in experiment [5], 7.31 µM (inactive); in [6] it was 7.82 µM (inactive). For the same compound, the GI50 in experiment [7] was 35.5 µM (inactive); in experiment [8], 37.8 µM (inactive); in [9], 12.1 µM (inactive); in [10] it was 20 µM (inactive); in experiment [11], 12.7 µM (inactive); in [12], 18.5 µM (inactive). Besides, the GI50 in experiment [13] was 22.1 µM (inactive); in experiment [14] it was 13.4 µM (inactive); in [15], 15.7 µM (inactive); in [16], 23.1 µM (inactive); in [17], 21.8 µM (inactive); in [18], 9.44 µM (inactive). Also, the GI50 in [19] is 26.5 µM (inactive); in experiment [20], 20.7 µM (inactive).
